Tested on: COX2
Assay: COX2 protein western blotting in F11-derived neurons
Assay type: cell-based
Conditions: DF2726A 1 µM + oxaliplatin 20 µM, 24 h
Procedure: Following neuronal differentiation, neurons were treated for 24 h with DF2726A (1 μM final concentration), oxaliplatin (Sigma-Aldrich; 20 µM final concentration), or the combination of the two molecules.
Control and treated cells were collected and lysed in ice-cold RIPA buffer (PBS pH 7.4 containing 0.5% sodium deoxycolate, 1% Igepal, 0.1% SDS, 5 mM EDTA, 1% protease and phosphatase inhibitor cocktails; Sigma-Aldrich) as described in[22],[33]. Protein lysates (30 μg) were separated on 8–12% SDS-polyacrilamide gel and electroblotted onto polyvinyldifluoride membrane (PVDF; Sigma-Aldrich). Nonspecific binding sites were blocked by 5% non-fat dry milk (Bio-Rad Laboratories, Hercules, CA, USA) in Tris buffered saline (TBS: 20 mM Tris- HCl, pH 7.4, containing 150 mM NaCl) for 30 min at RT. […] The relative densities of immunoreactive bands were determined and normalized HRP-conjugated β-actin, using ImageJ software. […]

CC(C)(C(=O)O)c1ccc(Nc2nc(C(F)(F)F)cs2)cc1 [DF2726A]
COX2 expression levels, oxaliplatin-treated neurons: comparable to the control

Source: PMC6692352, “DF2726A, a new IL-8 signalling inhibitor, is able to counteract chemotherapy-induced neuropathic pain” (Scientific Reports, 2019)
